Experimental data as given in patent publication US8143236B2, “Chemoprotective methods” (BioNumerik Pharmaceuticals, Inc., priority 2006, dated 2012).

Assays:
[1] = in vivo; cited from earlier work
[2] = tested on: decreases in NCV by cisplatin; assay: Cisplatin-induced decrease in nerve conduction velocity (NCV); type: in vivo; conditions: rats, cisplatin 2 mg/kg i.p. twice a week for 6 weeks, 1,000 mg/kg i.v. immediately before cisplatin
Procedure: Effects of the Formula (I) compound, Tavocept™ (dimesna; disodium 2,2′-dithio-bis-ethane sulfonate), on decreases in nerve conduction velocity (NCV) induced by cisplatin (2 mg/kg) administered by i.p. injection twice a week for 6 consecutive weeks were evaluated in rats.

[3] = after intravenous administration; intracellular glutathione as a cofactor; cited from earlier work
[4] = tested on: paclitaxel-induced decreases in NCV; assay: Paclitaxel-induced decrease in nerve conduction velocity (NCV); type: in vivo; conditions: rats; paclitaxel 6 mg/kg i.v. 5 times every other day; 1,000 mg/kg i.v. immediately after paclitaxel
[5] = tested on: chemotherapy-induced peripheral neuropathy; assay: Japan Phase III Clinical Trial, NSCLC patients receiving paclitaxel and cisplatin; type: in vivo, human; conditions: NSCLC; paclitaxel/Tavocept/cisplatin vs paclitaxel/saline placebo/cisplatin
Procedure: (§1) The Japan Phase III Clinical Trial was conducted as a double-blind study because peripheral neuropathy is diagnosed based on subjective symptoms evaluated through clinical interviews, lab tests, and the like. Accordingly, evaluations by both physicians and patients are highly important. […] A placebo was used as control since there is no established therapy or drug for preventing peripheral neuropathy. Because the severity of peripheral neuropathy is evaluated based on patients' reports (i.e., subjective symptoms), the Patient Neurotoxicity Questionnaire (PNQ©) (also known as the Peripheral Neuropathy Questionnaire) was used in primary evaluation. The CIPN-20 questionnaire and the National Cancer Institute-Common Toxicity Criteria (NCI-CTC) were used in secondary evaluation. The incidence and severity of adverse reactions, time to their onset, etc. and the like, were compared between patients treated with Tavocept™ and those given a placebo using the aforementioned methods.
(§2) The Primary Endpoint of the Japan Phase III Clinical Trial described in the present invention was specifically designed to test the hypothesis of whether chemotherapy-induced intermittent peripheral neuropathy would occur. The utilization of physical examination, laboratory tests, and highly detailed patient evaluation, especially utilizing the Patient Neurotoxicity Questionnaire (PNQ©), also known as the Peripheral Neuropathy Questionnaire, was responsible for the identification and characterization of this novel intermittent form of chemotherapy-induced peripheral neuropathy. The results illustrated in FIG. 3 indicate that intermittent peripheral neuropathy was specifically identified and measured in the Japan Phase III Clinical Trial. […] Additionally, the results illustrated in FIG. 4 and FIG. 5 also support the finding that the Formula (I) compound, Tavocept™, can mitigate and/or prevent intermittent peripheral neuropathy. FIG. 4 provides data supporting the merit of utilizing the Patient Neurotoxicity Questionnaire (PNQ©), also known as the Peripheral Neuropathy Questionnaire, and the Generalized Estimating Equation (GEE) statistical method to evaluate intermittent and cumulative peripheral neuropathy.

[6] = as above; type: in vivo, human
Procedure: as §1, §2

tubulin = conditions: in vitro; paclitaxel 6 μM; cited from earlier work
[7] = tested on: paclitaxel-induced thermoparesthesia; assay: Paclitaxel-induced thermoparesthesia model; type: in vivo, rats
[8] = Randomized double-blind placebo-controlled clinical study with paclitaxel: hypersensitivity Adverse Events by infusion time and concentration (FIG. 1); type: in vivo, human; conditions: for proportion of patients with at least one hypersensitivity Adverse Event: entire treated population: paclitaxel plus either placebo or drug (1:1)
Procedure: FIG. 1 illustrates a comparison of the number of hypersensitivity Adverse Events between groups of patients in whom 2,2′-dithio-bis-ethane sulfonate or a placebo was infused over (1) 30 minutes, (2) 30 and 45 minutes, or (3) 45 minutes. The chemotherapeutic agent administered was paclitaxel. In this Figure, n=#, equals the number of patients.
New methods of administration of agents such as 2,2′-dithio-bis-ethane sulfonate, pharmaceutically-acceptable salts, and/or an analog thereof, have now been discovered in connection with a human clinical study comprising a randomized, double-blind, placebo-controlled study with a 1:1 randomization. Initial blinded study results support the ability of compounds such as 2,2′-dithio-bis-ethane sulfonate to markedly enhance overall safety, decrease overall Adverse Events, decrease hypersensitivity-based Adverse Events, and increase the time of Adverse Event onset, while maintaining at least the same therapeutic indices (e.g. dose level administered in a prescribed specific time schedule, including duration of administration and frequency), and reduction, prevention, mitigation, and/or delay of toxicities associated with the administration of chemotherapeutic agents.
This reduction in the proportion of patients experiencing hypersensitivity reactions overall represents a medically significant difference in such adverse reactions. It represents a reduction in the risk of an observed potentially serious and life-threatening Adverse Event by approximately 29% in the entire study population (i.e., both placebo and 2,2′-dithio-bis-ethane sulfonate populations).
FIG. 1 illustrates a comparison of the number of hypersensitivity Adverse Events between groups of patients in whom 2,2′-dithio-bis-ethane sulfonate or a placebo was infused over (1) 30 minutes, (2) 30 minutes and 45 minutes, or (3) 45 minutes. In addition, the total number of hypersensitivity Adverse Events, the mean time to the first hypersensitivity Adverse Event, and a variety of the types of hypersensitivity Adverse Events were also shown. […] This reduction in the proportion of patients experiencing hypersensitivity Adverse Events overall represents a reduction in the risk of an observed potentially serious and life-threatening Adverse Event by approximately 29% in the entire study population (i.e., both placebo and disodium 2,2′-dithio-bis-ethane sulfonate populations).

[9] = tested on: sciatic and tibial nerves; assay: Histopathological abnormalities of sciatic and tibial nerves caused by paclitaxel; type: in vivo; conditions: paclitaxel 30 mg/kg i.v. every other day (3 doses); 2,000 mg/kg i.v. immediately after paclitaxel

N.N.[Cl][Pt][Cl] [cisplatin]
cumulative dose above which cisplatin-induced neuropathy usually occurs [1]: exceeds 300 mg/m^2

O=S(=O)([O-])CCSSCCS(=O)(=O)[O-].[Na+].[Na+] [Tavocept™, disodium 2,2′-dithio-bis-ethane sulfonate]
inhibition rate of decreases in NCV by cisplatin ([2]; 5 weeks after starting cisplatin): 53.6% | inhibition rate of decreases in NCV by cisplatin ([2]; 6 weeks after starting cisplatin): 64.7% | uptake and metabolism [3]: rapidly taken up in the kidney and metabolized into mesna | inhibition of paclitaxel-induced decreases in NCV [4]: 92.2% | reduction in severe (Grade D or E) intermittent or cumulative peripheral neuropathy (FIG. 5) [5]: ~50% | survival of patients with NSCLC ([6]; Tavocept and chemotherapy): medically important increase in survival | survival time of patients with adenocarcinoma ([6]; Tavocept and chemotherapy): medically important increase in survival time | chemotherapy-induced anemia, nausea/vomiting, fatigue, and kidney damage ([6]; clinical trial population): medically important reductions | hematological function (hemoglobin, hematocrit, erythrocyte levels) ([6]; patients with non-small cell lung carcinoma and adenocarcinoma): maintenance or stimulation of hematological function | concentration at which tubulin polymerization induced by paclitaxel is inhibited (tubulin): 6 mM | inhibition rates of thermoparesthesia caused by paclitaxel ([7]; paclitaxel 12 mg/kg i.p. once a week for 5 weeks, 2,000 mg/kg i.v. immediately after paclitaxel): 19.2-34.1% | maximum inhibition rate of paclitaxel-induced thermoparesthesia ([7]; rats, paclitaxel 6 mg/kg i.v. 5 times every other day, 1,000 mg/kg): 41.7% | inhibition of paclitaxel-induced thermoparesthesia ([7]; rats, paclitaxel 6 mg/kg i.v. 5 times every other day, 1,000 mg/kg i.v. immediately after paclitaxel): 27.5-59.2% | maximum inhibition rate of paclitaxel-induced thermoparesthesia ([7]; rats, paclitaxel 6 mg/kg i.v. 5 times every other day, 2,000 mg/kg): 41.5% | proportion of patients with at least one hypersensitivity Adverse Event ([8]; 100 mg/mL over 45 minutes): approximately 30% | proportion of patients with at least one hypersensitivity Adverse Event ([8]; 200 mg/mL over 30 minutes): approximately 42% | reduction in the overall proportion of patients experiencing hypersensitivity reactions ([8]; 45 min 100 mg/mL vs 30 min 200 mg/mL, absolute difference): approximately 12% | reduction in hypersensitivity Adverse Events in the drug treatment population ([8]; 45 min 100 mg/mL vs 30 min 200 mg/mL, assumes no placebo effect): ≤ 57% | reduction in the risk of hypersensitivity Adverse Event in the entire study population ([8]; 45 min 100 mg/mL vs 30 min 200 mg/mL, placebo and drug populations together): approximately 29% | increases in the incidence of histopathological abnormalities of the sciatic and tibial nerves [9]: inhibited
